Data on eleven compounds can be found in patent US20250236629A1, “MEDIUM- OR MACRO-CYCLIC BENZYL-SUBSTITUTED HETEROCYCLE DERIVATIVES AND RELATED USES” (CENTESSA PHARMACEUTICALS (UK) LIMITED, priority 2022, published 2025).

For this test, the target named is T1, human orexin type 2 receptor (hOX2R) (Homo sapiens, UniProt O43614).
T1 construct: the Orexin receptor cDNA was inserted into pcDNA3.1(+) plasmid vector; expressed in transfected cells
T1 sequence (O43614 1-444): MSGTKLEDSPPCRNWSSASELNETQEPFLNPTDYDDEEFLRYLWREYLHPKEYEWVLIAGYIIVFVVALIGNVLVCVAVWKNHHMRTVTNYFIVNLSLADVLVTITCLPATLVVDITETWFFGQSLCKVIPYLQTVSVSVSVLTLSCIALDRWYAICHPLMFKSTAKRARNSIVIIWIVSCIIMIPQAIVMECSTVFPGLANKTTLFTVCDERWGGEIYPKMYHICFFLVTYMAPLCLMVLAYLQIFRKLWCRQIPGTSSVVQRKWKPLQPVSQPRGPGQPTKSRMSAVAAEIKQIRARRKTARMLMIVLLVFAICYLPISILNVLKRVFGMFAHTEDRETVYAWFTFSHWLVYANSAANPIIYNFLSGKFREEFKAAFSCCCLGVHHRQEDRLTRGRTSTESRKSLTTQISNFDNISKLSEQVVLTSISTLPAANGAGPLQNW
In words: Orexin type 2 receptor agonist activity, intracellular Ca2+ (FLIPR TETRA) in CHO cells. Format: cell-based. Particulars: CHO cells expressing hOX2R; Ca2+ fluorescence area; 100% = 10 nM human orexin A; read-out: hOx2 pEC50 (converted). Here is the method:
Stable cell line generation. Obtainment of cells stably expressing either human orexin type 2 or human orexin type 1 receptor: to obtain a stable cell line the Orexin receptor cDNA was inserted into pcDNA3.1(+) plasmid vector and clones identified by G418 drug resistance selection. […] A single clone for OX2R—CHO and OX1R—CHO were grown in bulk and frozen to generate a cell bank for routine screening.
Measurement of orexin type 2 receptor agonist activity. Chinese hamster ovary (CHO) cells expressing human orexin type 2 receptor (hOX2R) or human orexin type 1 receptor (hOX1R) were seeded in each well of 384 well black clear bottom plates (BD Flacon) at 10,000 cells per well and cultured for 24 hr in an Ham's F12 (Gibco) medium containing 10% fetal calf serum (Sigma Aldrich) under the conditions of 37° C., 5% CO2. After removal of the medium, 50 μl of assay buffer 1 (0.1% bovine serum albumin (Sigma Aldrich), 20 mM HEPES (Molecular Dimensions), […] probenecid (Sigma Aldrich), 1× Calcium 5 dye (Molecular Devices) in Hank's balanced salt solution (Invitrogen)) was added, and the cells were incubated for 60 min under the conditions of 37° C., 5% CO2. A test compound was dissolved in dimethyl sulfoxide (Sigma Aldrich) to 10 mM, and then diluted with assay buffer 2 (20 mM HEPES, Hank's balanced salt solution, 0.1% bovine serum albumin). For the reaction, a test compound solution (10 μl) was added using Fluorescent Imaging Plate Reader TETRA (FLIPR TETRA: manufactured by Molecular Devices), a fluorescence value (excitation wavelength 488 nm, measurement wavelength 570 nm) of each well was measured every one second for 2 min, and the agonist activity was determined using the area of the fluorescence value as an indicator of intracellular Ca^2+ concentration. The agonist activity of the test compound was calculated assuming that the fluorescence value of the well added with only the dilution buffer was 0% and the fluorescence value of the well added with 10 nM human orexin A (Tocris) buffer was 100%.
Values of hOx2 pEC50 in Table B are presented in ranges, in which 6.0≤“+”<7.0, 7.0≤“++”<8.0, 8.0≤“+++”<9.0, and 9.0≤“++++”<10.4.

In the case of `CN1CCOc2ccccc2-c2cccc(c2F)C[C@H]2[C@@H](NS(=O)(=O)CF)C3(CC3)CN2C1=O` [Example 25, 1-fluoro-N-((2′S,3′S)-2′-fluoro-6′-methyl-5′-oxospiro[cyclopropane-1,4′-9-oxa-6-aza-4(2,1)-pyrrolidina-1(1,2),2(1,3)-dibenzenacyclononaphan]-3′-yl)methanesulfonamide], the EC50 is 1 to 10 nM.

For the compound `CCS(=O)(=O)N[C@@H]1[C@@H]2Cc3cccc(c3)-c3ccccc3OCCN(C)C(=O)N2CC1(F)F` [Example 23, N-((4^2S,4^3R)-4^4,4^4-difluoro-6-methyl-5-oxo-9-oxa-6-aza-4(2,1)-pyrrolidina-1(1,2),2(1,3)-dibenzenacyclononaphane-4^3-yl)ethanesulfonamide], the EC50 is 1 to 10 nM.

Regarding `CN1CCOc2c(F)cccc2-c2cccc(c2)C[C@H]2[C@@H](NS(=O)(=O)C(F)F)C3(CC3)CN2C1=O` [Example 34], the EC50 was 1 to 10 nM. As for `CCN1CCOc2ccccc2-c2cccc(c2)C[C@H]2[C@@H](NS(=O)(=O)CF)C3(CC3)CN2C1=O` [Example 37, N-((2′S,3′S)-6′-ethyl-5′-oxospiro[cyclopropane-1,4′-9-oxa-6-aza-4(2,1)-pyrrolidina-1(1,2),2(1,3)-dibenzenacyclononaphan]-3′-yl)-1-fluoromethanesulfonamide], the EC50 is 0.0398 to 1 nM. As for `CN1CCOc2ccccc2-c2cccc(c2)C[C@H]2[C@@H](NS(=O)(=O)C(C)(C)F)C3(CC3)CN2C1=O` [Example 38, 2-fluoro-N-((2′S,3′S)-6′-methyl-5′-oxospiro[cyclopropane-1,4′-9-oxa-6-aza-4(2,1)-pyrrolidina-1(1,2),2(1,3)-dibenzenacyclononaphan]-3′-yl)propane-2-sulfonamide], the EC50 is 1 to 10 nM. The result for `O=C1CCOc2ccccc2-c2cccc(c2)C[C@H]2[C@@H](NS(=O)(=O)C(F)F)CCCN12` [Example 26, 1,1-difluoro-N-((4^2S,4^3S)-5-oxo-8-oxa-4(2,1)-piperidina-1(1,2),2(1,3)-dibenzenacyclooctaphane-4^3-yl)methanesulfonamide] reads 1 to 10 nM. For the compound `O=C1CCOc2c(F)cc(F)cc2-c2cccc(c2)C[C@H]2[C@@H](NS(=O)(=O)CF)CCCN12` [Example 13, N-((4^2S,4^3S)-1^3,1^5-difluoro-5-oxo-8-oxa-4(2,1)-piperidina-1(1,2),2(1,3)-dibenzenacyclooctaphane-4^3-yl)-1-fluoromethanesulfonamide], the EC50 is 1 to 10 nM.

Take `CCS(=O)(=O)N[C@H]1[C@@H](F)CN2C(=O)N(C)CCOc3ccccc3-c3cccc(c3)C[C@@H]12` [Example 15, N-((4^2S,4^3R,4^4S)-4^4-fluoro-6-methyl-5-oxo-9-oxa-6-aza-4(2,1)-pyrrolidina-1(1,2),2(1,3)-dibenzenacyclononaphane-4^3-yl)ethanesulfonamide]: the EC50 is 1 to 10 nM. For the compound `CN1CCOc2c(F)cc(F)cc2-c2cccc(c2F)C[C@H]2[C@@H](NS(=O)(=O)CF)C3(CC3)CN2C1=O` [Example 40, 1-fluoro-N-((2′S,3′S)-2′,3′,5′-trifluoro-6′-methyl-5′-oxospiro[cyclopropane-1,4′-9-oxa-6-aza-4(2,1)-pyrrolidina-1(1,2),2(1,3)-dibenzenacyclononaphan]-3′-yl)methanesulfonamide], the EC50 was 1 to 10 nM.

As to `CCS(=O)(=O)N[C@@H]1[C@@H]2Cc3cccc(c3F)-c3cccc(F)c3OCCN(C)C(=O)N2CC12CC2` [Example 9, N-((2′S,3′S)-2′,3′-difluoro-6′-methyl-5′-oxospiro[cyclopropane-1,4′-9-oxa-6-aza-4(2,1)-pyrrolidina-1(1,2),2(1,3)-dibenzenacyclononaphan]-3′-yl)ethanesulfonamide], the EC50 is 1 to 10 nM.

As to `CN1CCOc2c(F)cccc2-c2cccc(c2F)C[C@H]2[C@@H](NS(=O)(=O)CF)C3(CC3)CN2C1=O` [Example 8, N-((2′S,3′S)-2′,3′-difluoro-6′-methyl-5′-oxospiro[cyclopropane-1,4′-9-oxa-6-aza-4(2,1)-pyrrolidina-1(1,2),2(1,3)-dibenzenacyclononaphan]-3′-yl)-1-fluoromethanesulfonamide], the EC50 is 0.0398 to 1 nM.
